The record followed here is the supplement of paper PMC12698765.

Where a name gives a salt, the structure may show the parent alone. ± gives the standard deviation of the averaged measurements.

Assay [1] has as its system 409B2 hiPSC (iCRISPR Cas9, FRMD7 editing). Description: cell survival relative to solvent control (fold (ratio to mock)); higher = more surviving cells. The protocol: (§1)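 Subset screen of 55 drugs tested at 5 concentrations around the effective screening dose, in 409B2 iCRISPR Cas9 hiPSCs editing FRMD7 with a ssDNA donor. Drugs were applied for 24 h. Viability was read by resazurin and editing outcomes by amplicon sequencing (HDR, NHEJ <2 bp microhomology, MMEJ ≥2 bp microhomology). Values are relative to solvent mock controls; two biological replicates.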

For assay [2] the test system is unchanged. Put plainly: HDR (precise edit) frequency relative to solvent control (fold (ratio to mock)); higher = more homology-directed repair outcomes. The protocol: as §1
Assay [3] shares this test system. Description: MMEJ-attributed deletion frequency relative to solvent control (fold (ratio to mock)); higher = more MMEJ outcomes. The protocol:
as §1

The test system is the same in assay [4]. Put plainly: NHEJ-attributed indel frequency relative to solvent control (fold (ratio to mock)); higher = more NHEJ outcomes. The protocol:
as §1

Take `CC[C@]1(O)C[C@@H]2CN(CCc3c([nH]c4ccccc34)[C@@](C(=O)OC)(c3cc4c(cc3OC)N(C)[C@H]3[C@@](O)(C(=O)OC)[C@H](OC(C)=O)[C@]5(CC)C=CCN6CC[C@]43[C@@H]65)C2)C1` [vinblastine] (in DMSO): the cell survival in assay [1] (2 nM) was 0.524; in assay [1] (5 nM), 0.114; in assay [1] (10 nM) it was 0.0472; in assay [1] (20 nM), 0.00549; in assay [1] (50 nM), 0.0072. The HDR in assay [2] (2 nM) came out at 0.877 ± 0.038; in assay [2] (5 nM) it was 0.65 ± 0.05; in assay [2] (10 nM) it was 0.556 ± 0.031; in assay [2] (20 nM) it was 0.249 ± 0.051; in assay [2] (50 nM), 0.248 ± 0.035. The MMEJ-attributed deletion frequency was determined as 1.02 ± 0.27 in assay [3] (2 nM); 1.51 ± 0.71 in assay [3] (5 nM); 0.931 ± 0.61 in assay [3] (10 nM); 0.674 ± 0.053 in assay [3] (20 nM); 0.827 ± 0.05 in assay [3] (50 nM). Moreover, the NHEJ-attributed indel frequency in assay [4] (2 nM) was 1.07 ± 0.05; in assay [4] (5 nM), 0.982 ± 0.17; in assay [4] (10 nM) it was 0.857 ± 0.17; in assay [4] (20 nM), 0.415 ± 0.0047; in assay [4] (50 nM), 0.557 ± 0.013.

For `NS(=O)(=O)c1ccccc1` [Benzenesulfonamide] (in DMSO), the cell survival was determined as 0.86 in assay [1] (20 nM); 1.22 in assay [1] (50 nM); 1.05 in assay [1] (100 nM); 1.13 in assay [1] (200 nM); 1.17 in assay [1] (500 nM). Also, the HDR in assay [2] (20 nM) was 1.14 ± 0.063; in assay [2] (50 nM), 1.08 ± 0.053; in assay [2] (100 nM), 1.02 ± 0.038; in assay [2] (200 nM) it was 1.1 ± 0.048; in assay [2] (500 nM), 1.06 ± 0.046. Besides, the MMEJ-attributed deletion frequency in assay [3] (20 nM) is 0.855 ± 0.14; in assay [3] (50 nM), 0.92339 ± 0.00028; in assay [3] (100 nM), 1.05 ± 0.23; in assay [3] (200 nM), 0.912 ± 0.08; in assay [3] (500 nM) it was 0.962 ± 0.038. For the same compound, the NHEJ-attributed indel frequency in assay [4] (20 nM) is 0.951 ± 0.029; in assay [4] (50 nM), 0.974 ± 0.026; in assay [4] (100 nM) it was 0.969 ± 0.028; in assay [4] (200 nM), 0.995 ± 0.03; in assay [4] (500 nM) it was 0.989 ± 0.029.

As for `CCN1CCC[C@H]1CNC(=O)c1cc(S(N)(=O)=O)ccc1OC` [Levosulpiride] (in DMSO), the cell survival stood at 1.06 in assay [1] (2000 nM); 1.32 in assay [1] (5000 nM); 1.26 in assay [1] (10000 nM); 1.18 in assay [1] (20000 nM); 1.33 in assay [1] (50000 nM). Also, the HDR in assay [2] (2000 nM) was determined as 1.05 ± 0.047; in assay [2] (5000 nM), 1.07 ± 0.081; in assay [2] (10000 nM), 1.13 ± 0.019; in assay [2] (20000 nM), 1.06 ± 0.13; in assay [2] (50000 nM) it was 1.09 ± 0.081. Moreover, the MMEJ-attributed deletion frequency in assay [3] (2000 nM) worked out at 1.07 ± 0.1; in assay [3] (5000 nM), 1.06 ± 0.0093; in assay [3] (10000 nM), 0.994 ± 0.19; in assay [3] (20000 nM) it was 1 ± 0.04; in assay [3] (50000 nM) it was 1 ± 0.04. Moreover, the NHEJ-attributed indel frequency in assay [4] (2000 nM) is 0.98 ± 0.013; in assay [4] (5000 nM), 0.9952 ± 0.0031; in assay [4] (10000 nM) it was 0.9818 ± 0.0064; in assay [4] (20000 nM) it was 1 ± 0.012; in assay [4] (50000 nM), 0.978 ± 0.038.

For `CC[N+](CC)(CC)CC` [Tetraethylammonium chloride] (in EtOH), the cell survival came to 0.933 in assay [1] (0.2 nM); 1.09 in assay [1] (0.5 nM); 0.954 in assay [1] (1 nM); 0.979 in assay [1] (2 nM); 1.03 in assay [1] (5 nM). Besides, the HDR in assay [2] (0.2 nM) amounted to 1.11 ± 0.15; in assay [2] (0.5 nM), 1.09 ± 0.19; in assay [2] (1 nM) it was 1.02 ± 0.019; in assay [2] (2 nM), 0.961 ± 0.11; in assay [2] (5 nM), 0.922 ± 0.038. Also, the MMEJ-attributed deletion frequency in assay [3] (0.2 nM) is 1.05 ± 0.022; in assay [3] (0.5 nM), 1.03 ± 0.11; in assay [3] (1 nM), 0.964 ± 0.1; in assay [3] (2 nM) it was 1.053 ± 0.0031; in assay [3] (5 nM), 0.9894 ± 0.0011. Besides, the NHEJ-attributed indel frequency in assay [4] (0.2 nM) turned out to be 0.99 ± 0.026; in assay [4] (0.5 nM), 0.996 ± 0.018; in assay [4] (1 nM), 0.99607 ± 0.00072; in assay [4] (2 nM), 1.007 ± 0.01; in assay [4] (5 nM) it was 0.9965 ± 0.0079.

As to `Nc1c(CC(=O)O)cccc1C(=O)c1ccc(Br)cc1` [Bromfenac Sodium] (in DMSO), the cell survival in assay [1] (200 nM) is 1.06; in assay [1] (500 nM), 1.2; in assay [1] (1000 nM), 0.983; in assay [1] (2000 nM) it was 1.04; in assay [1] (5000 nM) it was 1.09. The HDR in assay [2] (200 nM) came to 1.09 ± 0.065; in assay [2] (500 nM) it was 1.09 ± 0.07; in assay [2] (1000 nM), 1.11 ± 0.058; in assay [2] (2000 nM), 1.05 ± 0.025; in assay [2] (5000 nM) it was 1.11 ± 0.053. Also, the MMEJ-attributed deletion frequency in assay [3] (200 nM) came to 0.866 ± 0.12; in assay [3] (500 nM), 0.944 ± 0.072; in assay [3] (1000 nM), 0.811 ± 0.094; in assay [3] (2000 nM) it was 0.89 ± 0.033; in assay [3] (5000 nM) it was 0.976 ± 0.09. Further, the NHEJ-attributed indel frequency is 0.984 ± 0.026 in assay [4] (200 nM); 0.957 ± 0.032 in assay [4] (500 nM); 0.984 ± 0.016 in assay [4] (1000 nM); 1.02 ± 0.022 in assay [4] (2000 nM); 0.975 ± 0.044 in assay [4] (5000 nM).

On to `O=C1CN(/N=C/c2ccc(-c3ccc([N+](=O)[O-])cc3)o2)C(=O)N1` [Dantrolene, sodium salt] (in DMSO), for which the cell survival in assay [1] (2000 nM) was determined as 0.934; in assay [1] (5000 nM) it was 1.39; in assay [1] (10000 nM), 1.14; in assay [1] (20000 nM), 1.33; in assay [1] (50000 nM), 1.33. The HDR in assay [2] (2000 nM) stood at 1.04 ± 0.091; in assay [2] (5000 nM), 0.873 ± 0.12; in assay [2] (10000 nM), 0.851 ± 0.068; in assay [2] (20000 nM) it was 0.547 ± 0.039; in assay [2] (50000 nM), 0.508 ± 0.039. The MMEJ-attributed deletion frequency stood at 1.09 ± 0.25 in assay [3] (2000 nM); 0.966 ± 0.099 in assay [3] (5000 nM); 0.9399 ± 0.0032 in assay [3] (10000 nM); 0.997 ± 0.048 in assay [3] (20000 nM); 0.979 ± 0.13 in assay [3] (50000 nM). The NHEJ-attributed indel frequency in assay [4] (2000 nM) came to 0.941 ± 0.052; in assay [4] (5000 nM), 0.9996 ± 0.0056; in assay [4] (10000 nM) it was 1.06 ± 0.0076; in assay [4] (20000 nM) it was 1.199 ± 0.0027; in assay [4] (50000 nM) it was 1.24 ± 0.034.
